The results in this text go back to patent publication US20260167675A1, “VIRAL PEPTIDES AND USES THEREOF” (priority 2022, published 2026).

For the assay, the system named is human HLA-A11. Kind of assay: Flow cytometry binding of a pan HLA-A antibody against K562/HLA-A11 cells pulsed with HBV POL606-616 peptides (peptide loading). It is filed as cell-based. The note with it: maximum MFI pulsed / maximum MFI un-pulsed cells, loaded if S/N > 1.1; for S/N Peptide Concentration (33 μg/ml): K562/HLA-A11 cells pulsed with 33 μg/ml peptide; for S/N Peptide Concentration (100 μg/ml): K562/HLA-A11 cells pulsed with 100 μg/ml peptide. As for the experimental part: The present Example was designed to assess loading of HBV POL606-616 peptides on HLA-A11 in K562 cells engineered to express human HLA-A11 (K562/HLA-A11 cells). To assess loading of HBV POL606-616 peptides on HLA-A11, K562 cells engineered to express human HLA-A11 (K562/HLA-A11 cells) were pulsed by resuspending the cells in AIM V medium (Gibco. Catalog #31035-025) at a density of 1×10^6 cells/ml followed by the addition of 10 μg/ml human β2-microglobulin (hB2M; EMID Millipore Catalog #475828) and either 100 μg/ml or 33 μg/ml of the indicated peptide (Table 14).
K562/HLA-A11 cells were then incubated overnight at 37° C. Peptide-pulsed cells were then harvested and plated in staining buffer (PBS, without Calcium and Magnesium (Corning, Reference #21-031-CV)+2% FBS (Seradigm, Lot #238B15)) at a density of 200,000 cells per well in a 96-well V-Bottom plate. Cells were incubated with three-fold serial dilutions (5.1 pM-100 nM) with a pan HLA-A antibody (Novus, Catalog #DDX0250P-100) for 30 minutes at 4° C., washed once in staining buffer, and incubated with an Alexa-647 conjugated secondary antibody (Jackson ImmunoResearch, Catalog #115-606-071) at 5 µg/ml for 30 minutes at 4° C. Cells were again washed once in staining buffer and stained with viability dye (CellTrace™ Violet Cell Proliferation Kit, Thermo-Fisher Cat #C34557) for 30 minutes at 4° C. Lastly, cells were washed once in staining buffer and fixed using a 50% solution of BD Cytofix (BD, Catalog #554655). Samples were run and analyzed on an IntelliCyt iQue flow cytometer to calculate mean fluorescence intensity (MFI) on live cells. MFI values were plotted in GraphPad Prism. The secondary antibody alone condition (i.e., no primary antibody) for each dose-response curve was also included in the analysis as a continuation of the three-fold serial dilution and was represented as the lowest dose. The signal-to-noise (S/N) was calculated by dividing the maximum MFI on the pulsed cells by the maximum MFI on un-pulsed K562/HLA-A11 cells (Table 15). Peptides were determined to load if the S/N from pulsed cells/un-pulsed cells was greater than 1.1.
(In general: A flow cytometer gives signals particle by particle.)

Take “GSLPQEHIIQK (Hepatitis B virus) [HBV POL606-616 V4]”: the “S/N Peptide Concentration (33 μg/ml)” value is reported as 1.5 and the “S/N Peptide Concentration (100 μg/ml)” value turned out to be 1.5.

With “GSLPQEHIVQK (Hepatitis B virus) [HBV POL606-616 V1]”, the “S/N Peptide Concentration (33 μg/ml)” value stood at 1.6 and the “S/N Peptide Concentration (100 μg/ml)” value is 1.4.

In the case of “GTLPQEHIVHK (Hepatitis B virus) [HBV POL606-616 V2]”, the “S/N Peptide Concentration (33 μg/ml)” value is 1.0 and the “S/N Peptide Concentration (100 μg/ml)” value was determined as 1.1.

In the case of “GTLPQEHIVQK (Hepatitis B virus) [HBV POL606-616 V3]”, the “S/N Peptide Concentration (33 μg/ml)” value turned out to be 1.6 and the “S/N Peptide Concentration (100 μg/ml)” value is 1.5.
